In EPA's ToxValDB 9.5:
“And” between values parts separate entries of the source, which are not always exact repeats. Equal values may be shown once.

Experiments:
Oryctolagus sp. = conditions: for LD50: acute; for NOAEL: gavage
Rattus norvegicus [1] = conditions: for LD50 / LC50: acute
Rattus norvegicus [2] = conditions: subchronic; oral; gavage; M; Sprague-Dawley; Food Consumption: increase + Urinalysis: Ketone body decrease + Blood Chemistry: T-Cho increase, PL increase, TP increase + Absolute Organ …
Mus musculus = conditions: acute, injection
Rattus norvegicus [3] = conditions: chronic; duration: 2 years; oral; diet; M/F; neurotoxicity
[4] = reproduction developmental, oral, diet, Sprague-Dawley, generation: F1
[5] = subchronic, duration: 30 days, oral, diet, Sprague-Dawley

CCCCN(CCCC)C(=S)SCSC(=S)N(CCCC)CCCC [4,4'-Methylene bis(dibutyldithiocarbamate)]
LD50 (Oryctolagus sp.; dermal): > 2000 mg/kg | LD50 (Rattus norvegicus [1]; oral): 16000 mg/kg | NOAEL (Rattus norvegicus [1]; reproduction developmental, oral, diet, Sprague-Dawley, generation: F0): 1000 ppm | LOAEL (Rattus norvegicus [1]; [4]): > 20000 ppm | NOAEL (Rattus norvegicus [1]; [4]): > 20000 ppm

O=c1[nH]c(=O)[nH]c(=O)[nH]1 [Cyanuric acid]
LD50 (Oryctolagus sp.; dermal, occlusive, New Zealand): > 5000 mg/kg | LD50 (Rattus norvegicus [1]; oral, gavage, Sprague-Dawley): > 5000 mg/kg

CN1C(=O)c2ccccc2C1=O [N-Methylphthalimide]
LD50 (Oryctolagus sp.; dermal, occlusive, New Zealand): > 2000 mg/kg | NOAEL (Oryctolagus sp.; developmental, duration: 6 days, oral, New Zealand): > 500 mg/kg-day | LD50 (Rattus norvegicus [1]; oral, Spartan): > 500 mg/kg | LD50 (Rattus norvegicus [1]; oral, gavage, Spartan): > 500 mg/kg | NOAEL (Rattus norvegicus [1]; reproduction developmental, duration: 4 weeks, oral, gavage, F, Sprague-Dawley): 150 mg/kg-day | NOAEL (Rattus norvegicus [1]; reproduction developmental, duration: 4 weeks, oral, gavage, M, Sprague-Dawley): ≥ 600 mg/kg-day | NOAEL (Rattus norvegicus [1]; reproduction developmental, duration: 4 weeks, oral, gavage, Sprague-Dawley, generation: F0): 150 mg/kg-day | NOAEL (Rattus norvegicus [1]; reproduction developmental, duration: 4 weeks, oral, gavage, Sprague-Dawley, generation: F1): < 50 mg/kg-day | NOAEL (Rattus norvegicus [1]; reproduction developmental, oral, gavage, F): 150 mg/kg-day | NOAEL (Rattus norvegicus [1]; reproduction developmental, oral, gavage, generation: F0): 150 mg/kg-day | NOAEL (Rattus norvegicus [1]; reproduction developmental, oral, gavage, generation: F1): 50 mg/kg-day | LOAEL (% diet) (Rattus norvegicus [1]; [5]): 0.5 | NOAEL (% diet) (Rattus norvegicus [1]; [5]): 0.25

c1ccc(OP(Oc2ccccc2)Oc2ccccc2)cc1 [Triphenyl phosphite]
LD50 (Oryctolagus sp.; dermal, New Zealand): ≥ 2000 mg/kg and ≤ 5000 mg/kg | LC50 (Rattus norvegicus [1]; Inhalation, Sherman Wistar): > 6.7 µg/mL | LD50 (Rattus norvegicus [1]; oral, gavage, Sherman Wistar): 1590 mg/kg | NOAEL (Rattus norvegicus [1]; reproduction developmental, duration: 16 weeks, oral, gavage, Sprague-Dawley, generation: F0): 15 mg/kg-day | NOAEL (Rattus norvegicus [1]; reproduction developmental, duration: 16 weeks, oral, gavage, Sprague-Dawley, generation: F1): 15 mg/kg-day

ClC1=C(Cl)C2(Cl)C3CCC4C(CCC3C1(Cl)C2(Cl)Cl)C1(Cl)C(Cl)=C(Cl)C4(Cl)C1(Cl)Cl (centres undefined) [Dechlorane Plus]
LD50 (Oryctolagus sp.; dermal): > 8000 mg/kg | LOAEC (Oryctolagus sp.; reproduction developmental, duration: 4 weeks, dermal, non-occlusive, New Zealand, generation: F0): 2000 mg/kg-day | LC50 (Rattus norvegicus [1]; inhalation, particle): > 300 µg/mL | LC50 (Rattus norvegicus [1]; inhalation, particle, Charles-River): > 2.25 µg/mL | LD50 (Rattus norvegicus [1]; oral, gavage, Sprague-Dawley): > 3160 mg/kg | LD50 (Rattus norvegicus [1]; oral, gavage, Wistar): > 25000 mg/kg | NOAEL (Rattus norvegicus [1]; reproduction developmental, duration: 13 weeks, oral, diet, Crl, generation: F0): 100000 ppm | LOAEL (Rattus norvegicus [1]; reproduction developmental, duration: 28 days, inhalation, particle, Charles River COB, generation: F0): 0.64 mg/L

CC(C)OC(C)C [Isopropyl ether]
NOEL (Rattus norvegicus [2]): < 100 mg/kg-day | LD50 (Oryctolagus sp.; dermal, non-occlusive, New Zealand): > 2000 mg/kg | LD50 (Oryctolagus sp.; oral, New Zealand): 4500 mg/kg | NOAEL (Rattus norvegicus [1]; reproduction developmental, duration: 13 weeks, inhalation, Sprague-Dawley): 2010 mg/m3 | NOAEL (Rattus norvegicus [1]; reproduction developmental, duration: 10 days, inhalation, F, Sprague-Dawley): 1800 mg/m3

Clc1ccccn1 [2-Chloropyridine]
LD50 (Oryctolagus sp.; dermal): < 200 mg/kg | LD50 (Rattus norvegicus [1]; oral, gavage): 342 mg/kg

CC(C)(C)c1cc(C(C)(C)c2ccc(O)c(C(C)(C)C)c2)ccc1O [4,4'-Propane-2,2-diylbis(2-tert-butylphenol)]
LD50 (Mus musculus; Intraperitoneal): 40 mg/kg | LD50 (Mus musculus; intraperitoneal): 40 mg/kg

CCCCCCCCCCc1cccc(Oc2ccccc2S(=O)(=O)[O-])c1S(=O)(=O)[O-].[Na+].[Na+] [Disodium n-decyldiphenyl ether disulfonate]
LD50 (Oryctolagus sp.; dermal, occlusive, New Zealand): > 2000 mg/kg | LD50 (Rattus norvegicus [1]; oral, gavage, Fischer 344): > 2000 mg/kg | LD50 (Rattus norvegicus [1]; oral, gavage, Sprague-Dawley): 3560 mg/kg

O=C([O-])c1ccc2ccccc2c1.O=C([O-])c1ccc2ccccc2c1.[Zn+2] [Zinc naphthenate]
LOAEL (Oryctolagus sp.; subchronic, duration: 90 days, dermal, semiocclusive, New Zealand): 1000 mg/kg-day | LD50 (Rattus norvegicus [1]; oral, gavage): > 6000 mg/kg | LD50 (Rattus norvegicus [1]; oral, gavage, Sprague-Dawley): > 5000 mg/kg | LOAEL (Rattus norvegicus [1]; developmental, duration: 10 days, oral, gavage, Sprague-Dawley): 938 mg/kg-day | LOAEL (Rattus norvegicus [1]; reproduction developmental, duration: 10 days, oral, gavage, F, Sprague-Dawley): 500 mg/kg-day and 938 mg/kg-day

CC(C)CCCCCCc1cccc2c(CCCCCCC(C)C)cccc12 [Diisononylnaphthalene]
LD50 (Oryctolagus sp.; dermal, New Zealand): > 20000 mg/kg | LC50 (Rattus norvegicus [1]; Inhalation, Wistar): > 17 µg/mL | LD50 (Rattus norvegicus [1]; oral, gavage, Wistar): > 5000 mg/kg

CCCCC(CC)C(=O)[O-].CCCCC(CC)C(=O)[O-].[Zn+2] (centres undefined) [Zinc 2-ethylhexoate]
LD50 (Oryctolagus sp.; dermal, occlusive): > 5000 mg/kg | LC50 (Rattus norvegicus [1]; Inhalation): > 23.2 µg/mL | LD50 (Rattus norvegicus [1]; oral): ≥ 3550 mg/kg and ≤ 3700 mg/kg | LD50 (Rattus norvegicus [1]; oral, gavage): ≥ 3550 mg/kg and ≤ 3700 mg/kg | NOAEL (Rattus norvegicus [1]; short-term, duration: 7 days, oral, gavage, Sprague-Dawley): 1000 mg/kg-day

CN(C)C(=S)SSC(=S)N(C)C [Bis(dimethylaminothiocarbonyl) disulfide]
LD50 (Oryctolagus sp.; dermal): ≥ 2000 mg/kg | LD50 (Oryctolagus sp.; dermal, New Zealand): > 7940 mg/kg | NOAEL (Oryctolagus sp.; reproduction developmental, duration: 14 days, oral, F, New Zealand): 5 mg/kg-day | NOAEL (Oryctolagus sp.; reproduction developmental, duration: 14 days, oral, New Zealand, generation: F1): 5 mg/kg-day | LD50 (Rattus norvegicus [1]; dermal): > 5000 mg/kg | LC50 (Rattus norvegicus [1]; inhalation, particle): > 6.22 µg/mL | LD50 (Rattus norvegicus [1]; oral, gavage, Sprague-Dawley): 1080 mg/kg | NOAEL (Rattus norvegicus [1]; reproduction developmental, duration: 10 days, oral, gavage, Crl:CD1, generation: F1): 7.5 mg/kg-day | NOAEL (Rattus norvegicus [1]; reproduction developmental, duration: 10 days, oral, gavage, F): > 30 mg/kg-day | NOAEL (Rattus norvegicus [1]; reproduction developmental, duration: 10 days, oral, gavage, F, Crl:CD1): 7.5 mg/kg-day | NOAEL (Rattus norvegicus [1]; reproduction developmental, duration: 10 days, oral, gavage, generation: F1): 7.5 mg/kg-day | NOAEL (Rattus norvegicus [1]; reproduction developmental, duration: 81 days, oral, diet, generation: F1): 60 ppm and 180 ppm | NOAEL (Rattus norvegicus [1]; subchronic, duration: 90 days, oral, diet, F): 2.5 mg/kg-day | NOAEL (Rattus norvegicus [1]; subchronic, duration: 90 days, oral, diet, M): 2.5 mg/kg-day | LEL (Rattus norvegicus [3]): 15 mg/kg-day | NOEL (Rattus norvegicus [3]): 5 mg/kg-day

O=C(OCC1CC=CCC1)C1CC=CCC1 (centres undefined)
LD50 (Oryctolagus sp.; dermal, occlusive, New Zealand): 5010 mg/kg and ≥ 12300 mg/kg and ≤ 13400 mg/kg | LD50 (Rattus norvegicus [1]; oral, gavage): 2840 mg/kg | LD50 (Rattus norvegicus [1]; oral, gavage, Sprague-Dawley): ≥ 1360 mg/kg and ≤ 2390 mg/kg

C=CC(C)C#N (centres undefined) [2-Methyl-3-butenenitrile]
LD50 (Oryctolagus sp.; dermal, occlusive, New Zealand): 482 mg/kg | LC50 (Rattus norvegicus [1]; inhalation, Sprague-Dawley): 9950 mg/m3
